Literature values, collected in publication PMC9050719 (RSC Advances, 2020).

What was measured:
[1] = tested on: mice
[2] = prodrug of MPA

Compound | Administered dose giving profound toxicity in mice [1] | Bioavailability [2]
COc1c(C)c2c(c(O)c1C/C=C(\C)CCC(=O)O)C(=O)OC2 [MPA, Mycophenolic acid] | over 1000 mg per kg per day | –
COc1c(C)c2c(c(O)c1C/C=C(\C)CCC(=O)OCCN1CCOCC1)C(=O)OC2 [Mycophenolate mofetil] | – | ~90%
